Our source for the IC50 values is patent US20220340629A1, “Myosin Derived Peptides and Related Compounds with Anticoagulant Activities” (THE SCRIPPS RESEARCH INSTITUTE, priority 0001, published 2022).

pIC50: −log10 of the molar value. Non-standard residues stand in square brackets, D forms with d. Residues, ends and D or L forms follow the SMILES beside them. NMeA = CN[C@@H](C)C(=O)O; Nle = CCCC[C@H](N)C(=O)O

The target of the first assay is skeletal muscle myosin-supported prothrombin activation by factors Xa and Va (Homo sapiens, UniProt P00742). Put plainly: Assay 1A: prothrombin activation by factor Xa/factor Va/myosin in purified system. Type of assay: biochemical, human factors Xa and Va; rabbit skeletal muscle myosin. Conditions: purified system, prothrombin activation with myosin; read-out: 1A (+ myosin) IC50.
Sequence of skeletal muscle myosin-supported prothrombin activation by factors Xa and Va (P00742 41-179): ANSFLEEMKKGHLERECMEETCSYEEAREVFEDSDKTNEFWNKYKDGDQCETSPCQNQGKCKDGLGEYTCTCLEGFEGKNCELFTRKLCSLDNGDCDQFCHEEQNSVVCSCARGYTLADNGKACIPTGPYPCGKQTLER
Sequence of skeletal muscle myosin-supported prothrombin activation by factors Xa and Va (P00742 235-488): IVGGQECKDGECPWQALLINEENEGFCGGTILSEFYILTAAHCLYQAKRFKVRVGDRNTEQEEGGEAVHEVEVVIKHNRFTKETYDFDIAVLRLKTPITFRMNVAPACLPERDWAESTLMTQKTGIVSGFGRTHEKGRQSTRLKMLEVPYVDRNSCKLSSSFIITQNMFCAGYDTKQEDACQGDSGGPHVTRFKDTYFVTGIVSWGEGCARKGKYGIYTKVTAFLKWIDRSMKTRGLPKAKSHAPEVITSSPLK
Sequence of skeletal muscle myosin-supported prothrombin activation by factors Xa and Va (P12259 29-737 partner): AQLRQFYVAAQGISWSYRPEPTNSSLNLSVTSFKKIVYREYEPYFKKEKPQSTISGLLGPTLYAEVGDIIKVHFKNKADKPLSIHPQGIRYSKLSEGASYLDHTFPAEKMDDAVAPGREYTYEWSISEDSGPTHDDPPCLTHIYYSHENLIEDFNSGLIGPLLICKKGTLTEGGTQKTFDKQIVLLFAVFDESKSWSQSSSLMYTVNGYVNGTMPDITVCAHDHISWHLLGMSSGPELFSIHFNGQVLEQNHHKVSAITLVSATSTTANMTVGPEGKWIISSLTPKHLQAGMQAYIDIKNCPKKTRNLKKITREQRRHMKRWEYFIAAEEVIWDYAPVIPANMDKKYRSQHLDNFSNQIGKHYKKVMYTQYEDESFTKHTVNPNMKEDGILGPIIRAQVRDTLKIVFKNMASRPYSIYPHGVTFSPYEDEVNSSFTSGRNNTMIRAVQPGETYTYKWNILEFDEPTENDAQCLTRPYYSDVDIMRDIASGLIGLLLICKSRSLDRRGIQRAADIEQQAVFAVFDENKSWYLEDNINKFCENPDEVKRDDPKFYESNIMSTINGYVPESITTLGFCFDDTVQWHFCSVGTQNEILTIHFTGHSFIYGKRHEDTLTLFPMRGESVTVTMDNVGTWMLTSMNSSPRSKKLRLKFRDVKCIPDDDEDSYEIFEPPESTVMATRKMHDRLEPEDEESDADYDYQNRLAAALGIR
Sequence of skeletal muscle myosin-supported prothrombin activation by factors Xa and Va (P12259 1574-2224 partner): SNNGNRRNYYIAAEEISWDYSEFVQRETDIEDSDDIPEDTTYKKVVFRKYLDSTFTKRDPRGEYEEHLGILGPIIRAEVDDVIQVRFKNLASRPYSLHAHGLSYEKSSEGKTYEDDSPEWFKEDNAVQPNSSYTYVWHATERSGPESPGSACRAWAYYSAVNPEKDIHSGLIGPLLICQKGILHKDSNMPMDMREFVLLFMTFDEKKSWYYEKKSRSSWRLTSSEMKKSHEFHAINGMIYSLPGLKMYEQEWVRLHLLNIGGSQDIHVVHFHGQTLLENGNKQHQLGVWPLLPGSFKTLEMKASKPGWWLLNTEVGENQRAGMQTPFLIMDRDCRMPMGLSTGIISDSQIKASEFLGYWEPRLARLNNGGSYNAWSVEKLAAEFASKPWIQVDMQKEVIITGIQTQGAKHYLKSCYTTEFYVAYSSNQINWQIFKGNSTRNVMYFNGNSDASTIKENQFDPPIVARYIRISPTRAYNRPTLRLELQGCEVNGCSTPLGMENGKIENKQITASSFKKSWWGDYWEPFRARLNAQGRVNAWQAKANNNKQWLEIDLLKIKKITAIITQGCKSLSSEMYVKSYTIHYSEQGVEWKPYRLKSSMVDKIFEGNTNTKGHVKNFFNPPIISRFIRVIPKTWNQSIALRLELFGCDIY
As for “QEEIKNMWAAFPPDVGGNVDYKNICYVITH (Ac-QEEIKNMWAAFPPDVGGNVDYKNICYVITH-NH2) [RLC133-162]”, the pIC50 is 4.60.

Regarding “RVFDKEGNGTVMGAELRHVL (Ac-RVFDKEGNGTVMGAELRHVL-NH2) [ELC138-157]”, the pIC50 is 4.12.

As for “YEDFVEGLRVFDKEGN (Ac-YEDFVEGLRVFDKEGN-NH2) [ELC129-144]”, the pIC50 is roughly 4.15.

Consider `CCCC[C@H](NC(=O)[C@H](Cc1c[nH]c2ccccc12)NC(=O)[C@@H]1CCCN1C(=O)[C@H](Cc1c[nH]c2ccccc12)NC(=O)[C@H](Cc1c[nH]cn1)NC(=O)[C@H](CCCCN)NC(=O)[C@@H](NC(=O)[C@H](CC(N)=O)NC(=O)[C@H](CCCC)NC(=O)[C@H](Cc1ccccc1)NC(=O)[C@H](CO)NC(=O)[C@H](CCCNC(=N)N)NC(=O)[C@@H](NC(=O)[C@H](CC(N)=O)NC(=O)[C@H](Cc1ccc(O)cc1)NC(=O)[C@H](CCC(N)=O)NC(=O)[C@@H](NC(=O)[C@H](CS)NC(=O)[C@H](Cc1ccccc1)NC(=O)[C@H](C)N(C)C(=O)[C@H](C)N)[C@@H](C)CC)[C@@H](C)CC)C(C)C)C(=O)N[C@@H](CCCCN)C(N)=O` [HC191] (H-A[NMeA]FCIQYNIRSF[Nle]NVKHWPW[Nle]K-NH2; N-terminus assumed), for which the pIC50 is 5.80.

Still in this assay, the particulars now being: purified system; skeletal muscle myosin, factor Va 5 nM, factor Xa 0.2 nM, prothrombin 0.75 μM, 10 min; read-out: 1A (+myosin).
As for `CC[C@H](C)[C@H](NC(=O)[C@H](C)N)C(=O)N[C@@H](Cc1ccccc1)C(=O)N[C@@H](CS)C(=O)N[C@H](C(=O)N[C@@H](CCC(N)=O)C(=O)N[C@@H](Cc1ccc(O)cc1)C(=O)N[C@@H](CC(N)=O)C(=O)N[C@H](C(=O)N[C@@H](CCCNC(=N)N)C(=O)N[C@@H](CO)C(=O)N[C@@H](Cc1ccccc1)C(=O)N[C@@H](CCSC)C(=O)N[C@@H](CC(N)=O)C(=O)N[C@H](C(=O)N[C@@H](CCCCN)C(=O)N[C@@H](Cc1c[nH]cn1)C(=O)N[C@@H](Cc1c[nH]c2ccccc12)C(=O)N1CCC[C@H]1C(=O)N[C@@H](Cc1c[nH]c2ccccc12)C(=O)N[C@@H](CCSC)C(=O)N[C@@H](C)C(N)=O)C(C)C)[C@@H](C)CC)[C@@H](C)CC` [HC137] (H-AIFCIQYNIRSFMNVKHWPWMA-NH2; N-terminus assumed), the pIC50 was 5.26.

`CC[C@H](C)[C@H](NC(=O)[C@H](C)N)C(=O)N[C@@H](Cc1ccccc1)C(=O)N[C@@H](CS)C(=O)N[C@H](C(=O)N[C@@H](C)C(=O)N[C@@H](Cc1ccc(O)cc1)C(=O)N[C@@H](CC(N)=O)C(=O)N[C@H](C(=O)N[C@@H](CCCNC(=N)N)C(=O)N[C@@H](CO)C(=O)N[C@@H](Cc1ccccc1)C(=O)N[C@@H](CCSC)C(=O)N[C@@H](CC(N)=O)C(=O)N[C@H](C(=O)N[C@@H](CCCCN)C(=O)N[C@@H](Cc1c[nH]cn1)C(=O)N[C@@H](Cc1c[nH]c2ccccc12)C(=O)N1CCC[C@H]1C(=O)N[C@@H](Cc1c[nH]c2ccccc12)C(=O)N[C@@H](CCSC)C(=O)N[C@@H](CCCCN)C(N)=O)C(C)C)[C@@H](C)CC)[C@@H](C)CC` [HC121] (H-AIFCIAYNIRSFMNVKHWPWMK-NH2; N-terminus assumed): the pIC50 was 5.49.

Take `CC[C@H](C)[C@H](NC(=O)[C@H](C)N)C(=O)N[C@@H](Cc1ccccc1)C(=O)N[C@@H](CS)C(=O)N[C@H](C(=O)N[C@@H](CCC(N)=O)C(=O)N[C@@H](Cc1ccc(O)cc1)C(=O)N[C@@H](CC(N)=O)C(=O)N[C@H](C(=O)N[C@@H](CCCNC(=N)N)C(=O)N[C@@H](CO)C(=O)N[C@@H](Cc1ccccc1)C(=O)N[C@@H](CCSC)C(=O)N[C@@H](CC(N)=O)C(=O)N[C@H](C(=O)N[C@@H](CCCCN)C(=O)N[C@@H](Cc1c[nH]cn1)C(=O)N[C@@H](Cc1c[nH]c2ccccc12)C(=O)N[C@@H](C)C(=O)N[C@@H](Cc1c[nH]c2ccccc12)C(=O)N[C@@H](CCSC)C(=O)N[C@@H](CCCCN)C(N)=O)C(C)C)[C@@H](C)CC)[C@@H](C)CC` [HC134] (H-AIFCIQYNIRSFMNVKHWAWMK-NH2; N-terminus assumed): the pIC50 was 6.05.

Take `CC[C@H](C)[C@H](NC(=O)[C@H](C)N)C(=O)N[C@@H](Cc1ccccc1)C(=O)N[C@@H](CS)C(=O)N[C@H](C(=O)N[C@@H](CCC(N)=O)C(=O)N[C@@H](Cc1ccc(O)cc1)C(=O)N[C@@H](CC(N)=O)C(=O)N[C@H](C(=O)N[C@@H](C)C(=O)N[C@@H](CO)C(=O)N[C@@H](Cc1ccccc1)C(=O)N[C@@H](CCSC)C(=O)N[C@@H](CC(N)=O)C(=O)N[C@H](C(=O)N[C@@H](CCCCN)C(=O)N[C@@H](Cc1c[nH]cn1)C(=O)N[C@@H](Cc1c[nH]c2ccccc12)C(=O)N1CCC[C@H]1C(=O)N[C@@H](Cc1c[nH]c2ccccc12)C(=O)N[C@@H](CCSC)C(=O)N[C@@H](CCCCN)C(N)=O)C(C)C)[C@@H](C)CC)[C@@H](C)CC` [HC125] (H-AIFCIQYNIASFMNVKHWPWMK-NH2; N-terminus assumed): the pIC50 was 6.22.

For `CC[C@H](C)[C@H](NC(=O)[C@H](C)N)C(=O)N[C@@H](Cc1ccccc1)C(=O)N[C@@H](C)C(=O)N[C@H](C(=O)N[C@@H](CCC(N)=O)C(=O)N[C@@H](Cc1ccc(O)cc1)C(=O)N[C@@H](CC(N)=O)C(=O)N[C@H](C(=O)N[C@@H](CCCNC(=N)N)C(=O)N[C@@H](CO)C(=O)N[C@@H](Cc1ccccc1)C(=O)N[C@@H](CCSC)C(=O)N[C@@H](CC(N)=O)C(=O)N[C@H](C(=O)N[C@@H](CCCCN)C(=O)N[C@@H](Cc1c[nH]cn1)C(=O)N[C@@H](Cc1c[nH]c2ccccc12)C(=O)N1CCC[C@H]1C(=O)N[C@@H](Cc1c[nH]c2ccccc12)C(=O)N[C@@H](CCSC)C(=O)N[C@@H](CCCCN)C(N)=O)C(C)C)[C@@H](C)CC)[C@@H](C)CC` [HC119] (H-AIFAIQYNIRSFMNVKHWPWMK-NH2; N-terminus assumed), the pIC50 is 5.28.

Consider `CC[C@H](C)[C@H](NC(=O)[C@H](C)N)C(=O)N[C@@H](Cc1ccccc1)C(=O)N[C@@H](CS)C(=O)N[C@H](C(=O)N[C@@H](CCC(N)=O)C(=O)N[C@@H](Cc1ccc(O)cc1)C(=O)N[C@@H](CC(N)=O)C(=O)N[C@H](C(=O)N[C@@H](CCCNC(=N)N)C(=O)N[C@@H](C)C(=O)N[C@@H](Cc1ccccc1)C(=O)N[C@@H](CCSC)C(=O)N[C@@H](CC(N)=O)C(=O)N[C@H](C(=O)N[C@@H](CCCCN)C(=O)N[C@@H](Cc1c[nH]cn1)C(=O)N[C@@H](Cc1c[nH]c2ccccc12)C(=O)N1CCC[C@H]1C(=O)N[C@@H](Cc1c[nH]c2ccccc12)C(=O)N[C@@H](CCSC)C(=O)N[C@@H](CCCCN)C(N)=O)C(C)C)[C@@H](C)CC)[C@@H](C)CC` [HC126] (H-AIFCIQYNIRAFMNVKHWPWMK-NH2; N-terminus assumed), for which the pIC50 was 5.31.

As to `CC[C@H](C)[C@H](NC(=O)[C@H](C)N)C(=O)N[C@@H](Cc1ccccc1)C(=O)N[C@@H](CS)C(=O)N[C@H](C(=O)N[C@@H](CCC(N)=O)C(=O)N[C@@H](C)C(=O)N[C@@H](CC(N)=O)C(=O)N[C@H](C(=O)N[C@@H](CCCNC(=N)N)C(=O)N[C@@H](CO)C(=O)N[C@@H](Cc1ccccc1)C(=O)N[C@@H](CCSC)C(=O)N[C@@H](CC(N)=O)C(=O)N[C@H](C(=O)N[C@@H](CCCCN)C(=O)N[C@@H](Cc1c[nH]cn1)C(=O)N[C@@H](Cc1c[nH]c2ccccc12)C(=O)N1CCC[C@H]1C(=O)N[C@@H](Cc1c[nH]c2ccccc12)C(=O)N[C@@H](CCSC)C(=O)N[C@@H](CCCCN)C(N)=O)C(C)C)[C@@H](C)CC)[C@@H](C)CC` [HC122] (H-AIFCIQANIRSFMNVKHWPWMK-NH2; N-terminus assumed), the pIC50 is 5.96.

With `CC[C@H](C)[C@H](NC(=O)[C@H](C)N)C(=O)N[C@@H](C)C(=O)N[C@@H](CS)C(=O)N[C@H](C(=O)N[C@@H](CCC(N)=O)C(=O)N[C@@H](Cc1ccc(O)cc1)C(=O)N[C@@H](CC(N)=O)C(=O)N[C@H](C(=O)N[C@@H](CCCNC(=N)N)C(=O)N[C@@H](CO)C(=O)N[C@@H](Cc1ccccc1)C(=O)N[C@@H](CCSC)C(=O)N[C@@H](CC(N)=O)C(=O)N[C@H](C(=O)N[C@@H](CCCCN)C(=O)N[C@@H](Cc1c[nH]cn1)C(=O)N[C@@H](Cc1c[nH]c2ccccc12)C(=O)N1CCC[C@H]1C(=O)N[C@@H](Cc1c[nH]c2ccccc12)C(=O)N[C@@H](CCSC)C(=O)N[C@@H](CCCCN)C(N)=O)C(C)C)[C@@H](C)CC)[C@@H](C)CC` [HC118] (H-AIACIQYNIRSFMNVKHWPWMK-NH2; N-terminus assumed), the pIC50 is 5.74.

As for `CC[C@H](C)[C@H](NC(=O)[C@H](CS)NC(=O)[C@H](Cc1ccccc1)NC(=O)[C@H](C)NC(=O)[C@H](C)N)C(=O)N[C@@H](CCC(N)=O)C(=O)N[C@@H](Cc1ccc(O)cc1)C(=O)N[C@@H](CC(N)=O)C(=O)N[C@H](C(=O)N[C@@H](CCCNC(=N)N)C(=O)N[C@@H](CO)C(=O)N[C@@H](Cc1ccccc1)C(=O)N[C@@H](CCSC)C(=O)N[C@@H](CC(N)=O)C(=O)N[C@H](C(=O)N[C@@H](CCCCN)C(=O)N[C@@H](Cc1c[nH]cn1)C(=O)N[C@@H](Cc1c[nH]c2ccccc12)C(=O)N1CCC[C@H]1C(=O)N[C@@H](Cc1c[nH]c2ccccc12)C(=O)N[C@@H](CCSC)C(=O)N[C@@H](CCCCN)C(N)=O)C(C)C)[C@@H](C)CC` [HC117] (H-AAFCIQYNIRSFMNVKHWPWMK-NH2; N-terminus assumed), the pIC50 was 6.11.

On to `CC[C@H](C)[C@H](NC(=O)[C@H](C)N)C(=O)N[C@@H](Cc1ccccc1)C(=O)N[C@@H](CS)C(=O)N[C@H](C(=O)N[C@@H](CCC(N)=O)C(=O)N[C@@H](Cc1ccc(O)cc1)C(=O)N[C@@H](CC(N)=O)C(=O)N[C@H](C(=O)N[C@@H](CCCNC(=N)N)C(=O)N[C@@H](CO)C(=O)N[C@@H](Cc1ccccc1)C(=O)N[C@@H](CCSC)C(=O)N[C@@H](CC(N)=O)C(=O)N[C@H](C(=O)N[C@@H](CCCCN)C(=O)N[C@@H](Cc1c[nH]cn1)C(=O)N[C@@H](C)C(=O)N1CCC[C@H]1C(=O)N[C@@H](Cc1c[nH]c2ccccc12)C(=O)N[C@@H](CCSC)C(=O)N[C@@H](CCCCN)C(N)=O)C(C)C)[C@@H](C)CC)[C@@H](C)CC` [HC133] (H-AIFCIQYNIRSFMNVKHAPWMK-NH2; N-terminus assumed), for which the pIC50 is 5.74.
